One may read the Ki as the dissociation constant of the complex between target and ligand, obtained from inhibition or displacement. What is called ED50 is the dose at which the effect has come halfway, by size or by number of responders.

Counter-ions that a name gives are not always drawn. Like-named read-outs stand apart in the source and are kept apart here.

The target in one assay is T1, kappa opioid receptors (Cavia porcellus, UniProt P41144).
T1 construct: fresh guinea pig brain homogenate; from tissue; host or cells: guinea pig whole brain without cerebellum, homogenate
Description: biochemical. Type of assay: binding, guinea pig.

A further assay has as its system mice (tail-flick). Put plainly: animal or person. Conditions: Mus musculus, sc, 0.5 h, read-out: ANALGESIA TAIL-FLICK ED50 (a). The assay is classed as in vivo.
In a further assay the target is μ opioid receptor (Cavia porcellus, UniProt A0ACM8Q262). Put plainly: Binding to μ sites (3H-DAGO), receptor affinity study. Details: species or system guinea pig.
In assay [1] the test system is mice (p-phenylquinone-induced abdominal writhing). Put plainly: P-phenylquinone-induced abdominal writhing test in mice. Type of assay: in vivo. The conditions noted are these: Mus musculus, sc, p-phenylquinone i.p. 2 mg/Kg after 20 min pretreatment, calculated for the free base, read-out: ANALGESIA WRITHING ED50 (a). Here is the method: P-phenylquinone-induced abdominal writhing test in mice
The methodology employed is based on that described by Sigmund et al, Proc. Soc. Exptl. Biol. 95, 729/1957, modified by Milne and Twomey, Agents and Actions, 10, 31/1980.
Male Charles River mice (Swiss Strain), 25-36 g body weight, are used. Animals are allowed food and water ad libitum and are randomized into groups of 10 prior to experimentation. Test compounds are dissolved in either distilled water or distilled water plus 0.1M AMS, and administered by the subcutaneous route in a final volume of 10 ml/Kg. Control animals receive 10 ml/Kg of the appropriate vehicle alone. Following a pretreatment period of 20 min., mice are injected intraperitoneally with p-phenylquinone, 2 mg/Kg at 37° C. in a final volume of […]. Next, the mice are placed, in a groups of 3, in a compartmented perspex box maintained at room temperature and are observed for a period of 8 min. During this period the number of abdominal writhing responses per animal are recorded where writhing consists of an intermittent contraction of the abdomen associated with hind leg extension.
The degree of antinociceptive protection afforded by the test compound is determined as the mean number of writhing responses observed in the treated group (T) expressed as a percentage of the mean number of writhing responses in the control group (C) according to the following formula:
[1-(T/C)]×100%=% graded protection.

Setting [2] is: read-out: OPIATE RECEPTORS BINDING ki MU; guinea pig brain homogenate; 3H-DAGO; 40 min, 25° C.
[3] abbreviates: read-out: OPIATE RECEPTORS BINDING ki MU.

T1 sequence (P41144 whole entry): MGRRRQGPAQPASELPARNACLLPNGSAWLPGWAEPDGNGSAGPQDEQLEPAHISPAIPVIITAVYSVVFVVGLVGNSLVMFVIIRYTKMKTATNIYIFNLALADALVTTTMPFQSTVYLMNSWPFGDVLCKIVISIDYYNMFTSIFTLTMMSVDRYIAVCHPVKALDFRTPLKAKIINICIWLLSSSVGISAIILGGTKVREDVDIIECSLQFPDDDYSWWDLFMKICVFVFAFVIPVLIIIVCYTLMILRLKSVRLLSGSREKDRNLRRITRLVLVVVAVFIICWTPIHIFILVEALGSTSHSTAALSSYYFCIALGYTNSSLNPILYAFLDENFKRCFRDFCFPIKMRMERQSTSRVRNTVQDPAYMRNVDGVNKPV
μ opioid receptor, sequence (A0ACM8Q262 1-400): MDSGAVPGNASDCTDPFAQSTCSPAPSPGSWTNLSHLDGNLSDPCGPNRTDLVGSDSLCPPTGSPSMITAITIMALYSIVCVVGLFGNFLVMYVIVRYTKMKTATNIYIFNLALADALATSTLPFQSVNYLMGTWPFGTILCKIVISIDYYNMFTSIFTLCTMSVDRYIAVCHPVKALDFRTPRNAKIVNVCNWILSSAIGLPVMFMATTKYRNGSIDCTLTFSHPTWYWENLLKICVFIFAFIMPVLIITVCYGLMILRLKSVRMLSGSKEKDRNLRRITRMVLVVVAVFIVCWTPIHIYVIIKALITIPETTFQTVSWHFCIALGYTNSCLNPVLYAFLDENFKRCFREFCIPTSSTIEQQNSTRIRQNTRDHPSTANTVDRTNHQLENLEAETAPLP

Take `O=C(Cc1ccc(Cl)c(Cl)c1)N1CCc2sccc2C1CN1CCCC1` (single isomer, unassigned) [Example 9, (-)-4-(pyrrolidin-1-yl)methyl-5-(3,4-dichlorophenyl)acetyl-4,5,6,7-tetrahydrothieno[3,2-c]pyridine D(-) tartrate hemihydrate]: the values for the Ki at kappa opioid receptors and on μ opioid receptor (setting [2]) were 1.07 nM and 47.2 nM, respectively. Besides, the median effective dose (ED50) in the assay with mice (tail-flick) is 0.007 mg/kg; in assay [1], 0.003 mg/kg.

Regarding `O=C(Cc1ccc(Cl)c(Cl)c1)N1CCc2sccc2C1CN1CCCCC1` (single isomer, unassigned) [Example 10, (-)-4-(piperidin-1-yl)methyl-5-(3,4-dichlorophenyl)acetyl-4,5,6,7-tetrahydrothieno[3,2-c]pyridine L(+) tartrate hemihydrate], the ED50 is 0.041 mg/kg with mice (tail-flick) and 0.01 mg/kg in assay [1]. Also, the Ki at μ opioid receptor (setting [3]) was determined as 500 nM.

Turning to `O=C(Cc1ccc(C(F)(F)F)cc1)N1CCc2sccc2C1CN1CCCCC1` (single isomer, unassigned) [Example 13, (-)-4-(piperidin-1-yl)methyl-5-(4-trifluoromethylphenyl)acetyl-4,5,6,7-tetrahydrothieno[3,2-c]pyridine L(+) tartrate monohydrate], the ED50 was 0.054 mg/kg in the assay with mice (tail-flick) and 0.01 mg/kg in assay [1]. For the same compound, at μ opioid receptor (setting [2]), the Ki is 468 nM.

For the compound `CC(C1c2ccsc2CCN1C(=O)Cc1ccc(Cl)c(Cl)c1)N(C)C.Cl` (single isomer, unassigned) [Example 18, 4-[1-(dimethylamino)ethyl]-5-(3,4-dichlorophenyl)acetyl-4,5,6,7-tetrahydrothieno[3,2-c]pyridine hydrochloride], the ED50 with mice (tail-flick) is 0.824 mg/kg; in assay [1], 0.204 mg/kg.

As for `Cl.O.O=C(Cc1ccc(Cl)c(Cl)c1)N1CCc2sccc2C1CN1CCCC1` (stereo not shown) [Example 3, 4-(pyrrolidin-1-yl)methyl-5-(3,4-dichlorophenyl)acetyl-4,5,6,7-tetrahydrothieno[3,2-c]pyridine hydrochloride monohydrate], the Ki was 1.19 nM on kappa opioid receptors and 85 nM on μ opioid receptor (setting [2]). Moreover, the ED50 was 0.019 mg/kg in the assay with mice (tail-flick) and 0.004 mg/kg in assay [1].

`Cl.O=C(Cc1ccc(C(F)(F)F)cc1)N1CCc2sccc2C1CN1CCCC1` (stereo not shown) [Example 4, 4-(pyrrolidin-1-yl)methyl-5-(4-trifluoromethylphenyl)acetyl-4,5,6,7-tetrahydrothieno[3,2-c]pyridine hydrochloride]: the Ki on kappa opioid receptors came to 1.78 nM; at μ opioid receptor (setting [2]), 39.2 nM. For the same compound, the ED50 was 0.018 mg/kg in the assay on mice (tail-flick) and 0.004 mg/kg in assay [1].

`Cl.O=C(Cc1ccc(Cl)c(Cl)c1)N1CCc2sccc2C1CN1CCCCC1` (stereo not shown) [Example 5, 4-(piperidin-1-yl)methyl-5-(3,4-dichlorophenyl)acetyl-4,5,6,7-tetrahydrothieno[3,2-c]pyridine hydrochloride]: the inhibitory constant (Ki) at kappa opioid receptors amounted to 1.29 nM; at μ opioid receptor (setting [2]), 781 nM. The values for the ED50 (in the assay on mice (tail-flick); in assay [1]) were 0.09 mg/kg and 0.022 mg/kg, respectively.

`CN(C)CC1c2ccsc2CCN1C(=O)Cc1ccc(Cl)c(Cl)c1.Cl` (stereo not shown) [Example 6, 4-dimethylaminomethyl-5-(3,4-dichlorophenyl)acetyl-4,5,6,7-tetrahydrothieno[3,2-c]pyridine hydrochloride]: the figures for the Ki at kappa opioid receptors and at μ opioid receptor (setting [2]) were 1.75 nM and 607 nM, respectively. For the same compound, the 50% effective dose (ED50) in the assay on mice (tail-flick) came to 0.042 mg/kg.

As for `CN(C)CC1c2ccsc2CCN1C(=O)Cc1ccc(C(F)(F)F)cc1` (stereo not shown) [Example 7, 4-dimethylaminomethyl-5-(4-trifluoromethylphenyl)acetyl-4,5,6,7-tetrahydrothieno[3,2-c]pyridine 1.5 hydrochloride 1/3 hydrate], the Ki at kappa opioid receptors amounted to 3.46 nM; on μ opioid receptor (setting [3]) it was 513 nM. For the same compound, in the assay on mice (tail-flick), the ED50 turned out to be 0.093 mg/kg.

As for `O=C(Cc1ccc(C(F)(F)F)cc1)N1CCc2sccc2C1CN1CCCCC1` (stereo not shown) [Example 12, 4-(piperidin-1-yl)methyl-5-(4-trifluoromethylphenyl)acetyl-4,5,6,7-tetrahydrothieno[3,2-c]pyridine], the ED50 in the assay on mice (tail-flick) is 0.09 mg/kg; in assay [1], 0.034 mg/kg. The Ki at μ opioid receptor (setting [2]) was 793 nM.

Consider `O=C(Cc1ccc(Cl)c(Cl)c1)N1CCc2[nH]c3ccccc3c2C1CN1CCCC1` (stereo not shown) [Example 15, 1-(pyrrolidin-1-yl)methyl-2-(3,4-dichlorophenyl)acetyl-1,2,3,4-tetrahydro-5H-pyrido[4,3-b]indole hydrochloride hemihydrate], for which the ED50 (in the assay with mice (tail-flick); in assay [1]) was more than 10 mg/kg throughout.

In the case of `O=C(Cc1ccc(Cl)c(Cl)c1)N1CCc2[nH]c3ccccc3c2C1CN1CCCCC1` (stereo not shown) [Example 16, 1-(piperidin-1-yl)methyl-2-(3,4-dichlorophenyl)acetyl-1,2,3,4-tetrahydro-5H-pyrido[4,3-b]indole], the ED50 (with mice (tail-flick); in assay [1]) was more than 10 mg/kg each time.

With `O=C(Cc1ccc2c(c1)CCCC2)N1CCc2sccc2C1CN1CCCCC1` (stereo not shown) [Example 19, 4-(piperidin-1-yl)methyl-5-(5,6,7,8-tetrahydronapht-2-yl) acetyl-4,5,6,7-tetrahydrothieno[3,2-c]pyridine hydrochloride hemihydrate], the ED50 is 0.22 mg/kg in the assay with mice (tail-flick) and 0.092 mg/kg in assay [1].

Turning to `O=C(Cc1ccc2c(c1)CCC2)N1CCc2sccc2C1CN1CCCCC1` (stereo not shown) [Example 20, 4-(piperidin-1-yl)methyl-5-(indan-5-yl)acetyl-4,5,6,7-tetrahydrothieno[3,2-c]pyridine hydrochloride 1/3 hydrate], the ED50 in the assay on mice (tail-flick) is 0.412 mg/kg; in assay [1], 0.092 mg/kg.

With `O=C(Cc1ccc2c(c1)CCCC2)N1CCc2sccc2C1CN1CCCC1` (stereo not shown) [Example 21, 4-(pyrrolidin-1-yl)methyl-5-(5,6,7,8-tetrahydronapht-2-yl) acetyl-4,5,6,7-tetrahydrothieno[3,2-c]pyridine hydrochloride], the ED50 in the assay on mice (tail-flick) is 0.236 mg/kg; in assay [1], 0.022 mg/kg. The Ki on μ opioid receptor (setting [2]) stood at 56 nM.

On to `Cl.O=C(Cc1ccc2c(c1)CCC2)N1CCc2sccc2C1CN1CCCC1` (stereo not shown) [Example 22, 4-(pyrrolidin-1-yl)methyl-5-(indan-5-yl)acetyl-4,5,6,7-tetrahydrothieno[3,2-c]pyridine hydrochloride], for which the results for the ED50 (in the assay with mice (tail-flick); in assay [1]) were 0.146 mg/kg and 0.014 mg/kg, respectively. On μ opioid receptor (setting [2]), the Ki turned out to be 104 nM.

Regarding `O=C(Cc1ccc(Cl)c(Cl)c1)N1CCc2[nH]cnc2C1CN1CCCC1` (stereo not shown) [Example 23, 4-(pyrrolidin-1-yl)methyl-5-(3,4-dichlorophenyl)acetyl-4,5,6,7-tetrahydroimidazo[4,5-c]pyridine], the ED50 with mice (tail-flick) is more than 50 mg/kg. Besides, the Ki on μ opioid receptor (guinea pig brain homogenate; 3H-DAGO; 40 min, 25° C.; read-out: OPIATE RECEPTORS BINDING ki MU) is more than 1000 nM.

The values above are taken from patent US4999359A, “Heterocyclic ethylene diamine compounds and their pharmaceutical compositions and methods” (Dr. Lo Zambeletti S.p.A., priority 1988, dated 1991).
